In ChEMBL document CHEMBL5104111, “Boron-Containing heterocycles as promising pharmacological agents” (Bioorg Med Chem, 2022):
Values after ≈ are worked out from the molar mass of the structure shown.

System: Mycobacterium tuberculosis variant bovis
Assay: Antibacterial activity against Mycobacterium bovis BCG assessed as bacterial growth inhibition
Type: functional

Row | Compound | MIC
1 | O=C(NCCOCCOCCNC(=O)c1ccc2c(c1)B(O)OC2)c1ccc2c(c1)COB2O | 0.39 µM (≈ 0.183 µg/mL)
2 | O=C(NCCCOCCOCCOCCCNC(=O)c1ccc2c(c1)B(O)OC2)c1ccc2c(c1)COB2O | 0.39 µM (≈ 0.211 µg/mL)
3 | O=C(NCCNC(=O)c1ccc2c(c1)B(O)OC2)c1ccc2c(c1)B(O)OC2 | 0.78 µM (≈ 0.296 µg/mL)
